The target in the assay is Recombinant human ULK1 (1-649) (Homo sapiens (Human), UniProt O75385). The assay can be described thus: ULK1 ADP Glo kinase activity assay, new method (ULKtide peptide substrate). Particulars: 25° C., 40 minutes, read-out: ULK1 biochemical IC50. The procedure, abridged:
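Kinase activity was read as ADP production (ADP-Glo, luminescence 30 min after detection reagent) following a 40-min, 25 °C reaction of Sf9-expressed GST-ULK1 (1-649) with ULKtide substrate and ATP. Compounds ran as 12-point series starting at 10 μM; four-parameter curve fitting versus DMSO wells gave IC50.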
A general note: In ADP-Glo the light output rises with the ADP produced.

Chain of Recombinant human ULK1 (1-649) (O75385 1-649): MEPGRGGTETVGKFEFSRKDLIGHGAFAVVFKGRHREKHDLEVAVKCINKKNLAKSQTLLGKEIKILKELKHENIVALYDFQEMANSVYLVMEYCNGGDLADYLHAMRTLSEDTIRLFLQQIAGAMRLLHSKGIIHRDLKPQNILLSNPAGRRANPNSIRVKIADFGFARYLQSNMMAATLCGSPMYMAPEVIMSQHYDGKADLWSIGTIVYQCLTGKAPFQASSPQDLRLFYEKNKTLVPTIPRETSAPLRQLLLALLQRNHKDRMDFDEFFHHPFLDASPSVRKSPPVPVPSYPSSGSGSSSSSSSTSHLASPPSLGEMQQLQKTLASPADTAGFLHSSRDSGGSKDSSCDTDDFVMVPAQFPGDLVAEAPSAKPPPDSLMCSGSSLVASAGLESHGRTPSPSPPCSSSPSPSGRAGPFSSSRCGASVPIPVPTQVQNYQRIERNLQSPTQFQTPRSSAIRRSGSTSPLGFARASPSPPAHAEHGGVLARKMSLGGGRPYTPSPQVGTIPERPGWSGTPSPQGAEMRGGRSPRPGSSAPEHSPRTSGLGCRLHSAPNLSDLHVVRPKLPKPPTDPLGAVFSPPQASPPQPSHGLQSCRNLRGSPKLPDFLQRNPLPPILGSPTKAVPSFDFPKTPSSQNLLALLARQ

What is called IC50 is the point on the concentration scale where inhibition reaches its midpoint. With `O=C1c2sc(-c3nc(Nc4cc5c(cc4C4CC4)CN(CC4COC4)CC5)ncc3C(F)(F)F)cc2S(=O)(=O)CCN1C1COC1` [Example 257, 7-(2-((7-cyclopropyl-2-(oxetan-3-ylmethyl)-1,2,3,4-tetrahydroisoquinolin-6-yl)amino)-5-(trifluoromethyl)pyrimidin-4-yl)-4-(oxetan-3-yl)-3,4-dihydrothieno[2,3-f][1,4]thiazepin-5(2H)-one 1,1-dioxide], the IC50 is not above 5 nM.

As for `CCc1cc2c(cc1Nc1ncc(C(F)(F)F)c(-c3cc4c(s3)C(=O)N(CC(F)(F)F)CCS4(=O)=O)n1)CCNC2` [Example 175, 7-(2-((7-ethyl-1,2,3,4-tetrahydroisoquinolin-6-yl)amino)-5-(trifluoromethyl)pyrimidin-4-yl)-4-(2,2,2-trifluoroethyl)-3,4-dihydrothieno[2,3-f][1,4]thiazepin-5(2H)-one 1,1-dioxide], the IC50 was not above 5 nM.

`O=C1c2sc(-c3nc(Nc4cc5c(cc4Cl)CCNC5)ncc3C(F)(F)F)cc2S(=O)(=O)CCN1CC(F)(F)F` [Example 214, 7-(2-((6-chloro-1,2,3,4-tetrahydroisoquinolin-7-yl)amino)-5-(trifluoromethyl)pyrimidin-4-yl)-4-(2,2,2-trifluoroethyl)-3,4-dihydrothieno[2,3-f][1,4]thiazepin-5(2H)-one 1,1-dioxide]: the IC50 is not above 5 nM.

As to `O=C1c2sc(-c3nc(Nc4cc5c(cc4C4CC4)CNCC5)ncc3C(F)(F)F)cc2S(=O)(=O)CCN1CC(F)(F)F` [Example 215, 7-(2-((7-cyclopropyl-1,2,3,4-tetrahydroisoquinolin-6-yl)amino)-5-(trifluoromethyl)pyrimidin-4-yl)-4-(2,2,2-trifluoroethyl)-3,4-dihydrothieno[2,3-f][1,4]thiazepin-5(2H)-one 1,1-dioxide], the IC50 is not above 5 nM. Next, `CCc1cc(N2C[C@@H](C)N[C@@H](C)C2)ccc1Nc1ncc(C(F)(F)F)c(-c2cc3c(s2)C(=O)N(C2COC2)CCS3(=O)=O)n1` [Example 368, 7-(2-((4-((3S,5R)-3,5-dimethylpiperazin-1-yl)-2-ethylphenyl)amino)-5-(trifluoromethyl)pyrimidin-4-yl)-4-(oxetan-3-yl)-3,4-dihydrothieno[2,3-f][1,4]thiazepin-5(2H)-one 1,1-dioxide]: not above 5 nM; `CC(C)c1cc2c(cc1Nc1ncc(C(F)(F)F)c(-c3cc4c(s3)C(=O)N(C3CC3)CCS4(=O)=O)n1)CCN(CC1CC1)C2` [Example 268, 4-cyclopropyl-7-(2-((2-(cyclopropylmethyl)-7-isopropyl-1,2,3,4-tetrahydroisoquinolin-6-yl)amino)-5-(trifluoromethyl)pyrimidin-4-yl)-3,4-dihydrothieno[2,3-f][1,4]thiazepin-5(2H)-one 1,1-dioxide]: not above 5 nM; “4-cyclopropyl-7-(2-((4-(1-(2,2-difluoroethyl)piperidin-4-yl)-2-ethylphenyl)amino)-5-(trifluoromethyl)pyrimidin-4-yl)-3,4-dihydrothieno[2,3-f][1,4]thiazepin-5(2H)-one 1,1-dioxide [Example 281]”: 5 to 10 nM. The figure for `CCc1cc2c(cc1Nc1ncc(C(F)(F)F)c(-c3cc4c(s3)C(=O)N(CC(F)(F)F)CCS4(=O)=O)n1)CNCC2` [Example 258, 7-(2-((6-ethyl-1,2,3,4-tetrahydroisoquinolin-7-yl)amino)-5-(trifluoromethyl)pyrimidin-4-yl)-4-(2,2,2-trifluoroethyl)-3,4-dihydrothieno[2,3-f][1,4]thiazepin-5(2H)-one 1,1-dioxide] is not above 5 nM.

Consider `CN1CCS(=O)(=O)c2cc(-c3nc(Nc4cc5c(cc4F)CNC5)ncc3C(F)(F)F)sc2C1=O` [Example 157, 7-(2-((6-fluoroisoindolin-5-yl)amino)-5-(trifluoromethyl)pyrimidin-4-yl)-4-methyl-3,4-dihydrothieno[2,3-f][1,4]thiazepin-5(2H)-one 1,1-dioxide], for which the IC50 was not above 5 nM. The figure for `C[C@@H]1CN(c2cc(C3CC3)c(Nc3ncc(C(F)(F)F)c(-c4cc5c(s4)C(=O)N(C4COC4)CCS5(=O)=O)n3)cn2)CCN1` [Example 374, (R)-7-(2-((4-cyclopropyl-6-(3-methylpiperazin-1-yl)pyridin-3-yl)amino)-5-(trifluoromethyl)pyrimidin-4-yl)-4-(oxetan-3-yl)-3,4-dihydrothieno[2,3-f][1,4]thiazepin-5(2H)-one 1,1-dioxide] is not above 5 nM. The figure for `CC(C)(O)CN1CCc2cc(Nc3ncc(C(F)(F)F)c(-c4cc5c(s4)C(=O)N(C4COC4)CCS5(=O)=O)n3)c(C3CC3)cc2C1` [Example 291, 7-(2-((7-cyclopropyl-2-(2-hydroxy-2-methylpropyl)-1,2,3,4-tetrahydroisoquinolin-6-yl)amino)-5-(trifluoromethyl)pyrimidin-4-yl)-4-(oxetan-3-yl)-3,4-dihydrothieno[2,3-f][1,4]thiazepin-5(2H)-one 1,1-dioxide] is not above 5 nM; for `CN1CCS(=O)(=O)c2cc(-c3nc(Nc4cc5c(cc4Cl)CNCC5)ncc3C(F)(F)F)sc2C1=O` [Example 156, 7-(2-((7-chloro-1,2,3,4-tetrahydroisoquinolin-6-yl)amino)-5-(trifluoromethyl)pyrimidin-4-yl)-4-methyl-3,4-dihydrothieno[2,3-f][1,4]thiazepin-5(2H)-one 1,1-dioxide] it is not above 5 nM.

As to `O=C1c2sc(-c3nc(Nc4ccc(N5CCN[C@@H](CO)C5)cc4C4CC4)ncc3C(F)(F)F)cc2S(=O)(=O)CCN1C1CC1` [Example 345, (R)-4-cyclopropyl-7-(2-((2-cyclopropyl-4-(3-(hydroxymethyl)piperazin-1-yl)phenyl)amino)-5-(trifluoromethyl)pyrimidin-4-yl)-3,4-dihydrothieno[2,3-f][1,4]thiazepin-5(2H)-one 1,1-dioxide], the IC50 was not above 5 nM. Next, `O=C1c2sc(-c3nc(Nc4cc5c(nc4C4CC4)CNCC5)ncc3C(F)(F)F)cc2S(=O)(=O)CCN1C1COC1` [Example 304, 7-(2-((2-cyclopropyl-5,6,7,8-tetrahydro-1,7-naphthyridin-3-yl)amino)-5-(trifluoromethyl)pyrimidin-4-yl)-4-(oxetan-3-yl)-3,4-dihydrothieno[2,3-f][1,4]thiazepin-5(2H)-one 1,1-dioxide]: not above 5 nM; `CCN1CCc2cc(Nc3ncc(C(F)(F)F)c(-c4cc5c(s4)C(=O)N(C)CCS5(=O)=O)n3)c(C)cc2C1` [Example 185, 7-(2-((2-ethyl-7-methyl-1,2,3,4-tetrahydroisoquinolin-6-yl)amino)-5-(trifluoromethyl)pyrimidin-4-yl)-4-methyl-3,4-dihydrothieno[2,3-f][1,4]thiazepin-5(2H)-one 1,1-dioxide]: not above 5 nM; `CCc1cc2c(cc1Nc1ncc(C(F)(F)F)c(-c3cc4c(s3)C(=O)N(C)CCS4(=O)=O)n1)CNC2` [Example 160, 7-(2-((6-ethylisoindolin-5-yl)amino)-5-(trifluoromethyl)pyrimidin-4-yl)-4-methyl-3,4-dihydrothieno[2,3-f][1,4]thiazepin-5(2H)-one 1,1-dioxide]: not above 5 nM. Next, `CCc1cc2c(cc1Nc1ncc(C(F)(F)F)c(-c3cc4c(s3)C(=O)NCCS4(=O)=O)n1)CCN(C)C2` [Example 146, 7-(2-((7-ethyl-2-methyl-1,2,3,4-tetrahydroisoquinolin-6-yl)amino)-5-(trifluoromethyl)pyrimidin-4-yl)-3,4-dihydrothieno[2,3-f][1,4]thiazepin-5(2H)-one 1,1-dioxide]: not above 5 nM. For `CN1CCS(=O)(=O)c2cc(-c3nc(Nc4cc(C5CCNCC5)ccc4Cl)ncc3C(F)(F)F)sc2C1=O` [Example 149, 7-(2-((2-chloro-5-(piperidin-4-yl)phenyl)amino)-5-(trifluoromethyl)pyrimidin-4-yl)-4-methyl-3,4-dihydrothieno[2,3-f][1,4]thiazepin-5(2H)-one 1,1-dioxide], the IC50 lay in the range of 10 to 50 nM. Next, `O=C1c2sc(-c3nc(Nc4cc5c(cc4C4CC4)CN(C4COC4)CC5)ncc3C(F)(F)F)cc2S(=O)(=O)CCN1C1CC1` [Example 289, 4-cyclopropyl-7-(2-((7-cyclopropyl-2-(oxetan-3-yl)-1,2,3,4-tetrahydroisoquinolin-6-yl)amino)-5-(trifluoromethyl)pyrimidin-4-yl)-3,4-dihydrothieno[2,3-f][1,4]thiazepin-5(2H)-one 1,1-dioxide]: 5 to 10 nM; `CCc1cc(N2C[C@H]3CC[C@@H](C2)N3C)ccc1Nc1ncc(C(F)(F)F)c(-c2cc3c(s2)C(=O)N(C2CC2)CCS3(=O)=O)n1` [Example 325, 4-cyclopropyl-7-(2-((2-ethyl-4-((1R,5S)-8-methyl-3,8-diazabicyclo[3.2.1]octan-3-yl)phenyl)amino)-5-(trifluoromethyl)pyrimidin-4-yl)-3,4-dihydrothieno[2,3-f][1,4]thiazepin-5(2H)-one 1,1-dioxide]: not above 5 nM; `CCc1cc2c(cc1Nc1ncc(C(F)(F)F)c(-c3cc4c(s3)C(=O)N(C3CC3)CCS4(=O)=O)n1)CCN(CCF)C2` [Example 243]: not above 5 nM.

As to `O=C1c2sc(-c3nc(Nc4cc5c(cc4C4CC4)CN(C4COC4)CC5)ncc3C(F)(F)F)cc2S(=O)(=O)CCN1C1COC1` [Example 292, 7-(2-((7-cyclopropyl-2-(oxetan-3-yl)-1,2,3,4-tetrahydroisoquinolin-6-yl)amino)-5-(trifluoromethyl)pyrimidin-4-yl)-4-(oxetan-3-yl)-3,4-dihydrothieno[2,3-f][1,4]thiazepin-5(2H)-one 1,1-dioxide], the IC50 is not above 5 nM. Next, `CCN1CCc2cc(Nc3ncc(C(F)(F)F)c(-c4cc5c(s4)C(=O)N(C4CC4)CCS5(=O)=O)n3)c(C3CC3)cc2C1` [Example 233, 4-cyclopropyl-7-(2-((7-cyclopropyl-2-ethyl-1,2,3,4-tetrahydroisoquinolin-6-yl)amino)-5-(trifluoromethyl)pyrimidin-4-yl)-3,4-dihydrothieno[2,3-f][1,4]thiazepin-5(2H)-one 1,1-dioxide]: not above 5 nM.

Source of the values: patent publication US20250144094A1 (Erasca, Inc., priority 2021, published 2025).
